Measurements: publication PMC6471427, “Halogen-Substituted Triazolethioacetamides as a Potent Skeleton for the Development of Metallo-β-Lactamase Inhibitors” (Molecules, 2019)
Where two headings read alike, the source gives them in different places.

Columns and labels:
MβLs = molecular target: MβLs; design: method as in PMID 11564740; details: broad spectrum MβLs inhibitor; read-out: Ki against MβLs; cited from earlier work
ImiS = molecular target: T1, ImiS (Aeromonas veronii, UniProt O31272); experiment: Inhibition of ImiS-catalysed hydrolysis of imipenem (UV-vis kinetics; IC50, Ki, mode); format: biochemical; details: for Inhibition mode against ImiS: Lineweaver-Burk plots
T1 construct: made in house
Excerpt: (§1) To test whether these halogen-substituted triazolethioacetamides were inhibitors of the MβLs, three subclasses MβLs B1(VIM-2 and NDM-1), B2 (ImiS), and B3 (L1) were expressed and purified as previously described. […] On the whole, triazolethioacetamides containing chlorine (1–8) increase the inhibitory potency slightly on average compared to those containing fluorine (9–12), but the presence of trifluoromethoxy (13) is beneficial to increase the inhibitory activity. […] Furthermore, replacement of two hydrogen at the anilino group with chlorine (4 and 5) or fluorine (12) relatively reduces the inhibitory activity, especially compound 12 with two fluorine at 2,5-position of anilino group.
(§2) The inhibition studies were carried out on an Agilent UV 8453 spectrophotometer at 25 °C using cefazolin as substrate of […], NDM-1, and L1 and imipenem as substrate of ImiS. Inhibitors 1–13 were dissolved in DMSO and then diluted with Tris-HCl, pH 7.0. The substrate concentrations were varied between 25 and 400 μM, and inhibitor concentrations were varied between 125 nM and 1 mΜ. The enzyme and inhibitor were pre-incubated for 30 min before starting the kinetic experiments. The IC50 values for all analyzed compounds were calculated based on the kinetic data. The mode of inhibition was determined by generating Lineweaver-Burk plots of the data, and the Ki was determined by replotting the data for slope and intercept versus […].

NDM-1 = molecular target: T2, NDM-1 (Klebsiella pneumoniae, UniProt C7C422); experiment: Inhibition of NDM-1 with cefazolin as substrate (UV-vis kinetics); format: biochemical; details: read-out: IC50 against NDM-1
T2 construct: made in house
Excerpt: as §1, §2

VIM-2 = molecular target: T3, VIM-2 (Escherichia coli, UniProt Q5U7L7); experiment: Inhibition of VIM-2 (UV-vis kinetics); format: biochemical; details: 25 °C, Tris-HCl pH 7.0, 30 min pre-incubation; read-out: IC50 against VIM-2
T3 construct: made in house
Excerpt: as §1, §2

[1] = 25 °C, Tris-HCl pH 7.0, 30 min pre-incubation

T1 sequence (O31272 28-255): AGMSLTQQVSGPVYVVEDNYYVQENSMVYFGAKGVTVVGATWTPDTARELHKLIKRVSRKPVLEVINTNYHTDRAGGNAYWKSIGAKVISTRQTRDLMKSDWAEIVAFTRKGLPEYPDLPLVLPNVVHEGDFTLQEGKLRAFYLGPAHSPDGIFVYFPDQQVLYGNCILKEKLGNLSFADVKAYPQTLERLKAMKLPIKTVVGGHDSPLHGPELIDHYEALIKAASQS
T2 sequence (C7C422 29-270, looked up, species assumed): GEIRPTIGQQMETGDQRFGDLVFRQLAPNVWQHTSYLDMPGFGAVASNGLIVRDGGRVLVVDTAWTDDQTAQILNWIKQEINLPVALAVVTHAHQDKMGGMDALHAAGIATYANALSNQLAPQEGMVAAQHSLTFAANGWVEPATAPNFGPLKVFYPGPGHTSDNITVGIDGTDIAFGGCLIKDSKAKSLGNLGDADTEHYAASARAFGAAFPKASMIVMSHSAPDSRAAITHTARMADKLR

Row | Compound | Ki (MβLs) [µM] | IC50 (ImiS) [µM] | IC50 (NDM-1; [1]) [nM] | IC50 (VIM-2) [µM] | IC50 (NDM-1; value in nM) [nM] | Ki (ImiS) [µM] | Inhibition mode against ImiS (ImiS; imipenem as substrate) | Inhibitory activity against ImiS (in words) (ImiS; imipenem as substrate)
1 | O=C(O)C(S)c1ccccc1 (single isomer, unassigned) [S-isomer, thiomandelic acid] | 1.28 | – | – | – | – | – | – | –
2 | O=C(CSc1nnc(-c2ccccc2O)[nH]1)Nc1ccccc1Cl [Compound 1] | – | 0.032 | 960 ± 70 | > 1000 | – | – | – | –
3 | O=C(CSc1nnc(-c2ccccc2O)[nH]1)Nc1cccc(Cl)c1 [Compound 2] | – | 0.045 ± 0.002 | 170 ± 20 | > 1000 | 170 | – | – | –
4 | O=C(CSc1nnc(-c2ccccc2O)[nH]1)Nc1ccc(Cl)cc1 [Compound 3] | – | 0.051 ± 0.006 | 370 ± 50 | > 1000 | – | – | – | –
5 | O=C(CSc1nnc(-c2ccccc2O)[nH]1)Nc1ccc(Cl)c(Cl)c1 [Compound 4] | – | 0.27 ± 0.02 | > 1e+06 | > 1000 | – | – | – | –
6 | O=C(CSc1nnc(-c2ccccc2O)[nH]1)Nc1ccc(Cl)cc1Cl [Compound 5] | – | 0.16 ± 0.03 | > 1e+06 | > 1000 | – | – | – | –
7 | O=C(CSc1nnc(-c2ccccc2O)[nH]1)Nc1ccc(Cl)cc1[N+](=O)[O-] [Compound 6] | – | 0.78 ± 0.08 | > 1e+06 | > 1000 | – | – | – | –
8 | O=C(CSc1nnc(-c2ccccc2O)[nH]1)Nc1cc(Cl)ccc1[N+](=O)[O-] [Compound 7] | – | 0.2 ± 0.04 | > 1e+06 | > 1000 | – | – | – | –
9 | O=C(CSc1nnc(-c2ccccc2O)[nH]1)Nc1ccc([N+](=O)[O-])cc1Cl [Compound 8] | – | 0.26 ± 0.03 | > 1e+06 | > 1000 | – | – | – | –
10 | O=C(CSc1nnc(-c2ccccc2O)[nH]1)Nc1ccccc1F [Compound 9] | – | 0.072 ± 0.005 | > 1e+06 | > 1000 | – | 0.074 | mixed inhibitors | –
11 | O=C(CSc1nnc(-c2ccccc2O)[nH]1)Nc1cccc(F)c1 [Compound 10] | – | 0.98 ± 0.04 | > 1e+06 | > 1000 | – | – | – | –
12 | O=C(CSc1nnc(-c2ccccc2O)[nH]1)Nc1ccc(F)cc1 [Compound 11] | – | > 50 | > 1e+06 | > 1000 | – | – | – | nearly had no inhibitory activity
13 | O=C(CSc1nnc(-c2ccccc2O)[nH]1)Nc1c(F)cccc1F [Compound 12] | – | 15.6 ± 3 | > 1e+06 | 38.9 ± 5 | – | – | – | –
14 | O=C(CSc1nnc(-c2ccccc2O)[nH]1)Nc1ccc(OC(F)(F)F)cc1 [Compound 13] | – | 0.23 ± 0.09 | > 1e+06 | 2.8 ± 0.3 | – | 0.27 | mixed inhibitors | –
15 | O=C(O)C(S)c1ccccc1 (centres unmarked) [rthiomandelic acid, thiomandelic acid] | 0.09 | – | – | – | – | – | – | –
